Earlier results, collected in PMC9019041, “Structural insights into the peptide selectivity and activation of human neuromedin U receptors” (Nature Communications, 2022).
Where no end group is shown, it is not given here.

How the values were obtained:
[1] = system: neuromedin U receptor 1 (NMUR1); conditions: low selectivity; cited from earlier work
Text: (§1) Human neuromedin U (NMU) is a 25-amino-acid endogenous peptide that was first discovered in extracts of the porcine spinal cord with a potent smooth muscle contractile activity. It is also involved in pleiotropic physiological functions, including the regulation of blood pressure, food uptake, nociception, pain perception, bone formation, and immunological responses. More recently, human neuromedin S (NMS), a 33-amino-acid endogenous peptide, was discovered, which shares an identical C-terminal heptapeptide with NMU. Unlike NMU, which is widely distributed in the central nervous system ( ...

[2] = system: neuromedin U receptor 2 (NMUR2); conditions: low selectivity; cited from earlier work
Text: as §1

neuromedin S (ILQRGSGTAAVDFTKKDHTATWGRPFFLFRPRN-NH2) [NMS, Human 33-amino-acid endogenous neuropeptide sharing the C-terminal heptapeptide with NMU; agonist of NMUR1 and NMUR2 (GenScript)]
affinity [1]: sub-nanomolar
affinity [2]: sub-nanomolar
